Where “and” joins values, the source holds several entries; their conditions need not be identical. Identical values can stand only once. Like-named read-outs stand apart in the source and are kept apart here.
Legend:
[1] = molecular target: T1, OATP1B3 (Homo sapiens, UniProt Q9NPD5); test: Transporter inhibition; type: in vitro ADME
[2] = molecular target: CYP1A2 (Homo sapiens, UniProt P05177); test: In vitro CYP inhibition; type: in vitro ADME; conditions: clinically relevant concentrations
[3] = test system: CYP3A4; test: CYP induction; type: in vitro ADME; conditions: clinically relevant concentrations
[4] = Safety in 12-week placebo-controlled Studies 1 and 2; type: in vivo, human
Method: The safety of atogepant was evaluated in 1958 patients with migraine who received at least one dose of atogepant. Of these, 839 patients were exposed to atogepant once daily for at least 6 months, and 487 patients were exposed for 12 months. In the 12-week, placebo-controlled clinical studies (Study 1 and Study 2, discussed above in Example 7), 314 patients received at least one dose of atogepant 10 mg once daily, 411 patients received at least one dose of atogepant 30 mg once daily, 417 patients received at least one dose of atogepant 60 mg once daily, and 408 patients received placebo. Approximately 88% were female, 80% were White, 17% were Black, and 12% were of Hispanic or Latino ethnicity. The mean age at study entry was 41 years (range 18 to 74 years).

[5] = molecular target: CYP2C8 (Homo sapiens, UniProt P10632); test: In vitro CYP inhibition; type: in vitro ADME; conditions: clinically relevant concentrations
CYP2C8, sequence (P10632 whole entry): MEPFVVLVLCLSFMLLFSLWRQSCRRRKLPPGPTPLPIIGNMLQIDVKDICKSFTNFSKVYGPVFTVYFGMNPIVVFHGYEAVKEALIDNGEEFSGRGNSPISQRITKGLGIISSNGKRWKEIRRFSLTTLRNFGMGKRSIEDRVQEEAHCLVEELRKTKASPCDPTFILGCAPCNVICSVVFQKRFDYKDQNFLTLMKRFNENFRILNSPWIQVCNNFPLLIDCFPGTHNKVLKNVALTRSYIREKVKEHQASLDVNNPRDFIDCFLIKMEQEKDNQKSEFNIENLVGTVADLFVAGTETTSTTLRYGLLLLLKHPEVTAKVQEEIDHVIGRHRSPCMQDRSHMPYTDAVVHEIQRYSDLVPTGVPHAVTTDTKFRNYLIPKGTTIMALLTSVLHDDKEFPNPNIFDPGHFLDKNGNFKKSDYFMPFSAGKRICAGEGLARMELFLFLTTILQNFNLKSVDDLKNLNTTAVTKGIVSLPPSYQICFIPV

[6] = Hepatic impairment study: atogepant plasma protein binding; type: in vitro ADME, human; conditions: human, plasma, oral, 60 mg, 2 hr post dose, read-out: plasma protein binding, percent bound (converted)
Method: (§1) Protein binding blood samples were collected from all participants starting on Day 1 at 0 hour (predose) and at 2 hours post dose. The pre-dose samples collected prior to dosing for each participant were externally spiked with known quantities of atogepant. Percent bound atogepant was determined in the 2-hour sample using direct measurement of the atogepant concentrations in the blood sample.

[7] = test system: plasma protein; test: as above; type: in vitro ADME, human; conditions: for fraction unbound: human, 0 hr (predose, spiked sample), read-out: plasma protein binding, percent bound (converted); for plasma protein binding, percent bound: 2 hr post dose
Method: as §1

[8] = molecular target: T1, OATP1B3; test: Transporter substrate; type: in vitro ADME
[9] = molecular target: BCRP (Homo sapiens, UniProt Q9UNQ0); test: Transporter substrate; type: in vitro ADME
BCRP, sequence (Q9UNQ0 whole entry): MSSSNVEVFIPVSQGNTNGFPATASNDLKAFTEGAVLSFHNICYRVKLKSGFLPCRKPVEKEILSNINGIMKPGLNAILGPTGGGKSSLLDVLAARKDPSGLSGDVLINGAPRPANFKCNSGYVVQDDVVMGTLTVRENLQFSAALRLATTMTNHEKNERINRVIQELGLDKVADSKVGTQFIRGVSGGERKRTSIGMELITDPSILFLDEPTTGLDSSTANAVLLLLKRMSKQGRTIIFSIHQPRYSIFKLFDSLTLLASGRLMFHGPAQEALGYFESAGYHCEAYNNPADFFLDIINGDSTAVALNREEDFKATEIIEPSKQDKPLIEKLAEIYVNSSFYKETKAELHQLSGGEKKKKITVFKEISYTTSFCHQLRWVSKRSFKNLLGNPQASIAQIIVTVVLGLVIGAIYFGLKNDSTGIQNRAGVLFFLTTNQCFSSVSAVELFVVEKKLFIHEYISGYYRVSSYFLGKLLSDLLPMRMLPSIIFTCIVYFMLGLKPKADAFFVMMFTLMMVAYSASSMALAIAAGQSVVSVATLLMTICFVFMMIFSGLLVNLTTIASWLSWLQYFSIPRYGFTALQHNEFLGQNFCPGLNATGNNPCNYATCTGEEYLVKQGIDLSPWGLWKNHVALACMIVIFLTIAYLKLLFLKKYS

[10] = Atogepant-rifampin drug interaction study: atogepant plasma PK; type: in vivo, human; conditions: for Tmax: read-out: Tmax (median); for Vd/F: read-out: Vz/F
Method: The study consisted of a Screening Visit, two study periods, an end-of-treatment (EOT) visit, and a follow-up visit. […] [table] […] Relative to the time that atogepant was administered, blood samples for atogepant plasma PK were to be collected at the following times: • Days 1 and 12: 0 hour (predose) and at 0.5, 1, 1.5, 2, 3, 4, 6, 8, 12, 16, 24, 36, and 48 hours post dose. • Day 7: 0 hour (predose) and at 0.5, 1, 1.5, 2, 3, 4, 6, 8, 12, 16, and 24 hours postdose

[11] = molecular target: MATE 1 (Homo sapiens, UniProt Q96FL8); test: Transporter inhibition; type: in vitro ADME
MATE 1, sequence (Q96FL8 whole entry): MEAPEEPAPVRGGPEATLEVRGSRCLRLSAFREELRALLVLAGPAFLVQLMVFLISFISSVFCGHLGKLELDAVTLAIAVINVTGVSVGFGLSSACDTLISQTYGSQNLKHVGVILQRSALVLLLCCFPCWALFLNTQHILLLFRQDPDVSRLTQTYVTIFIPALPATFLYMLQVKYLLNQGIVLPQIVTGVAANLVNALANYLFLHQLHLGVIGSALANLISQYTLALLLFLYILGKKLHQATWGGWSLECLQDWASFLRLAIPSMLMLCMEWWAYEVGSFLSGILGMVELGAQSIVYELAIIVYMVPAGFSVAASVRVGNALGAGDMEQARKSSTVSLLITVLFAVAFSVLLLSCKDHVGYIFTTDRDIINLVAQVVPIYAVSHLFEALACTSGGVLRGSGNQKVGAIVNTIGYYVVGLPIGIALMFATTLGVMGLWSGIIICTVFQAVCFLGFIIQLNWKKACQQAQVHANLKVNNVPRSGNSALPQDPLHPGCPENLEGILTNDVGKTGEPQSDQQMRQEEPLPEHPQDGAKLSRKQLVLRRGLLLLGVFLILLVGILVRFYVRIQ

[12] = molecular target: NTCP (Homo sapiens, UniProt Q14973); test: Transporter inhibition; type: in vitro ADME; conditions: clinically relevant concentrations
NTCP, sequence (Q14973 whole entry): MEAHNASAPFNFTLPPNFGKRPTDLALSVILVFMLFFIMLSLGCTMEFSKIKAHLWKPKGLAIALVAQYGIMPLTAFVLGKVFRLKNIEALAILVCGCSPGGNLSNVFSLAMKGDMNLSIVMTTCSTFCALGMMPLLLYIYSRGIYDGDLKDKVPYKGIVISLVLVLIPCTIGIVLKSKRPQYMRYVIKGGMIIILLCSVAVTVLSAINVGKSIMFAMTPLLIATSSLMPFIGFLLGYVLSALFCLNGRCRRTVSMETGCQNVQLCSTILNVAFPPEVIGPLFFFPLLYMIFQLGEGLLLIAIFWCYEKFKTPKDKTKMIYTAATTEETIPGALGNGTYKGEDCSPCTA

[13] = Studies 1 and 2, atogepant 10 mg (N = 314)
[14] = Studies 1 and 2, atogepant 30 mg (N = 411)
[15] = Studies 1 and 2, atogepant 60 mg (N = 417)
[16] = Treatment A: atogepant 60 mg alone
[17] = Treatment B1 (single-dose rifampin) / Treatment A
[18] = Treatment B2 (multi-dose rifampin) / Treatment A
[19] = Treatment B2: atogepant 60 mg + multiple-dose rifampin 600 mg
[20] = atogepant 60 mg + multiple-dose rifampin 600 mg (strong CYP3A4 inducer) vs atogepant alone
[21] = atogepant 60 mg + single-dose rifampin 600 mg (OATP inhibitor) vs atogepant alone
[22] = both sexes, human, plasma, oral, 60 mg, Treatment A: atogepant 60 mg alone
[23] = both sexes, human, plasma, oral, Treatment B2: atogepant 60 mg + multiple-dose rifampin 600 mg

T1 sequence (Q9NPD5 whole entry): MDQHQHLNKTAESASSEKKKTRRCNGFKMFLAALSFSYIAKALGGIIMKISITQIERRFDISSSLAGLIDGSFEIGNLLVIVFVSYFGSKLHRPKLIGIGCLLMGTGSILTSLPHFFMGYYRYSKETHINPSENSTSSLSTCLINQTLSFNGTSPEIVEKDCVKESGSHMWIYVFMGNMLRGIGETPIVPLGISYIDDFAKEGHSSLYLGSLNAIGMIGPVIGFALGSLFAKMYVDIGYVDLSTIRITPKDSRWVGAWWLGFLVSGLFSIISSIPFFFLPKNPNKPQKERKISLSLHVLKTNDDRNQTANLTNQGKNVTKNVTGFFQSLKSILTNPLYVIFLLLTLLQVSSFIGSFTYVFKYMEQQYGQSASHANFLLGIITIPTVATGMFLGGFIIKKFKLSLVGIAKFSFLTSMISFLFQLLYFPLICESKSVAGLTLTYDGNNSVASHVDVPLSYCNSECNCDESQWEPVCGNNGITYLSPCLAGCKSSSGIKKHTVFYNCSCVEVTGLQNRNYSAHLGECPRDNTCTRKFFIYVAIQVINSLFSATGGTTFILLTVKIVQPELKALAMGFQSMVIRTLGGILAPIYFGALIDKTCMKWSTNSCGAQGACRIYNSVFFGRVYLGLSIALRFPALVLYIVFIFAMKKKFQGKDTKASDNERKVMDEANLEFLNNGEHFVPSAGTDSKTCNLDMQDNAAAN
CYP1A2, sequence (P05177 whole entry): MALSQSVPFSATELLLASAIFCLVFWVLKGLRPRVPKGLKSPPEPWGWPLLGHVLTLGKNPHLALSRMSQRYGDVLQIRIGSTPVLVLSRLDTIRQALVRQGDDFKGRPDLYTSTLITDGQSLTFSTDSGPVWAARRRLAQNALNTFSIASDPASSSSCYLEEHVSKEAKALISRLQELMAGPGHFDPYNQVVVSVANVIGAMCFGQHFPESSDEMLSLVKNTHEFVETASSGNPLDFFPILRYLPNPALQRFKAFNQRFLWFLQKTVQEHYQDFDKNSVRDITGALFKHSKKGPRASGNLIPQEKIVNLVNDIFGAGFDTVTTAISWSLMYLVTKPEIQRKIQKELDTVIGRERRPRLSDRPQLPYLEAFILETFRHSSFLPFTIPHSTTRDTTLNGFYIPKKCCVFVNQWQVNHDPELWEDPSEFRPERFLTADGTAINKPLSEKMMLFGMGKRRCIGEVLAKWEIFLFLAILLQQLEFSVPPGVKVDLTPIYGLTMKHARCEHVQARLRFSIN

SMILES: C[C@@H]1[C@H](c2c(F)ccc(F)c2F)C[C@H](NC(=O)c2cnc3c(c2)C[C@@]2(C3)C(=O)Nc3ncccc32)C(=O)N1CC(F)(F)F [atogepant, (3′S)-N-[(3S,5S,6R)-6-methyl-2-oxo-1-(2,2,2-trifluoroethyl)-5-(2,3,6-trifluorophenyl)piperidin-3-yl]-2′-oxo-1′,2′,5,7-tetrahydrospiro[cyclopenta[b]pyridine-6,3′-pyrrolo[2,3-b]pyridine]-3-carboxamide]
- inhibition of OATP1B3 [1]: weak inhibitor
- inhibition of CYP1A2 [2]: not an inhibitor
- induction of CYP3A4 [3]: not an inducer
- discontinuation due to constipation ([4]; Studies 1 and 2): 0.5%
- discontinuation due to fatigue/somnolence ([4]; Studies 1 and 2): 0.5%
- discontinuation due to nausea ([4]; Studies 1 and 2): 0.5%
- proportion of patients with a weight decrease of at least 7% at any point ([4]; Studies 1 and 2, atogepant 10 mg): 3.8%
- Constipation, incidence [4, 13]: 6%
- Decreased Appetite, incidence [4, 13]: 2%
- Fatigue/Somnolence, incidence [4, 13]: 4%
- Nausea, incidence [4, 13]: 5%
- proportion of patients with a weight decrease of at least 7% at any point ([4]; Studies 1 and 2, atogepant 30 mg): 3.2%
- Constipation, incidence [4, 14]: 6%
- Decreased Appetite, incidence [4, 14]: 1%
- Fatigue/Somnolence, incidence [4, 14]: 4%
- Nausea, incidence [4, 14]: 6%
- proportion of patients with a weight decrease of at least 7% at any point ([4]; Studies 1 and 2, atogepant 60 mg): 4.9%
- Constipation, incidence [4, 15]: 6%
- Decreased Appetite, incidence [4, 15]: 2%
- Fatigue/Somnolence, incidence [4, 15]: 6%
- Nausea, incidence [4, 15]: 9%
- severe liver injury or jaundice ([4]; Study 1 and Study 2): no cases
- rate of transaminase elevations over 3 times the upper limit of normal ([4]; Study 1 and Study 2, patients treated with atogepant): 1.0%
- time to resolution of transaminase elevations after discontinuation ([4]; cases temporally associated with atogepant treatment, asymptomatic): ≤ 8 weeks
- inhibition of CYP2C8 [5]: not an inhibitor
- fraction unbound at 2 h ([6]; mild-impaired): 0.026
- fraction unbound at 2 h ([6]; moderate-impaired): 0.029
- fraction unbound at 2 h ([6]; normal hepatic function): 0.018
- fraction unbound at 2 h ([6]; severe-impaired): 0.047
- fraction unbound ([7]; mild-impaired): 0.0297
- fraction unbound ([7]; moderate-impaired): 0.034
- fraction unbound ([7]; normal hepatic function): 0.0211
- fraction unbound ([7]; severe-impaired): 0.0552
- plasma protein binding, percent bound ([7]; mild-impaired): 97.36 ± 0.70%
- plasma protein binding, percent bound ([7]; moderate-impaired): 97.05 ± 0.62%
- plasma protein binding, percent bound ([7]; normal hepatic function): 98.21 ± 0.46%
- plasma protein binding, percent bound ([7]; severe-impaired): 95.34 ± 0.85%
- substrate of OATP1B3 [8]: substrate
- substrate of BCRP [9]: substrate
- CL/F [10, 16]: 22.8 L/h
- λz [10, 16]: 0.0778 h⁻¹
- AUC0-24 Ratio of Geometric Means Test/Ref [10, 17]: 284.84%
- Cmax Ratio of Geometric Means Test/Ref [10, 17]: 222.65%
- AUC0-t Ratio of Geometric Means Test/Ref [10, 18]: 40.46%
- AUC0-∞ Ratio of Geometric Means Test/Ref [10, 18]: 38.85%
- Cmax Ratio of Geometric Means Test/Ref [10, 18]: 70.06%
- CL/F [10, 19]: 58.3 L/h and 58.3^b L/h
- λz [10, 19]: 0.325^b 1/h
- reduction of atogepant AUC0-t (AUC) [10, 20]: 60%
- reduction of atogepant Cmax [10, 20]: 30%
- reduction of atogepant AUC0-∞ ([10]; atogepant 60 mg + multiple-dose rifampin 600 mg vs atogepant alone): 61%
- increase in atogepant AUC0-24 [10, 21]: 2.85 fold
- increase in atogepant Cmax [10, 21]: 2.23 fold
- half-life [10, 22]: 11.4 h
- AUC(0-t) ([10]; both sexes, human, plasma, oral, 60 mg, Treatment A: atogepant 60 mg alone, read-out: AUC0-24): 2870 ng·h/mL
- AUC(0-t) ([10]; both sexes, human, plasma, oral, 60 mg, Treatment A: atogepant 60 mg alone, read-out: AUC0-24 Geometric LSM, Reference): 2680 ng·h/mL
- AUC(0-t) ([10]; both sexes, human, plasma, oral, 60 mg, Treatment A: atogepant 60 mg alone, read-out: AUC0-t): 2960 ng·h/mL
- AUC(0-t) ([10]; both sexes, human, plasma, oral, 60 mg, Treatment A: atogepant 60 mg alone, read-out: AUC0-t Geometric LSM, Reference): 2770 ng·h/mL
- AUC(0-inf) ([10]; both sexes, human, plasma, oral, 60 mg, Treatment A: atogepant 60 mg alone, read-out: AUC0-∞): 3000 ng·h/mL
- AUC(0-inf) ([10]; both sexes, human, plasma, oral, 60 mg, Treatment A: atogepant 60 mg alone, read-out: AUC0-∞ Geometric LSM, Reference): 2810 ng·h/mL
- Cmax ([10]; both sexes, human, plasma, oral, 60 mg, Treatment A: atogepant 60 mg alone, read-out: Cmax): 711 ng/mL
- Cmax ([10]; both sexes, human, plasma, oral, 60 mg, Treatment A: atogepant 60 mg alone, read-out: Cmax Geometric LSM, Reference): 649 ng/mL
- Tmax [10, 22]: 1.5 h
- AUC(0-t) ([10]; both sexes, human, plasma, oral, Treatment B1: atogepant 60 mg + single-dose rifampin 600 mg, read-out: AUC0-24): 8130 ng·h/mL
- AUC(0-t) ([10]; both sexes, human, plasma, oral, Treatment B1: atogepant 60 mg + single-dose rifampin 600 mg, read-out: AUC0-24 Geometric LSM, Test): 7630 ng·h/mL
- Cmax ([10]; both sexes, human, plasma, oral, Treatment B1: atogepant 60 mg + single-dose rifampin 600 mg, read-out: Cmax): 1550 ng/mL
- Cmax ([10]; both sexes, human, plasma, oral, Treatment B1: atogepant 60 mg + single-dose rifampin 600 mg, read-out: Cmax Geometric LSM, Test): 1440 ng/mL
- Tmax ([10]; both sexes, human, plasma, oral, Treatment B1: atogepant 60 mg + single-dose rifampin 600 mg): 2 h
- half-life [10, 23]: 2.39 h
- AUC(0-t) ([10]; both sexes, human, plasma, oral, Treatment B2: atogepant 60 mg + multiple-dose rifampin 600 mg, read-out: AUC0-t): 1180 ng·h/mL
- AUC(0-t) ([10]; both sexes, human, plasma, oral, Treatment B2: atogepant 60 mg + multiple-dose rifampin 600 mg, read-out: AUC0-t Geometric LSM, Test): 1120 ng·h/mL
- AUC(0-inf) ([10]; both sexes, human, plasma, oral, Treatment B2: atogepant 60 mg + multiple-dose rifampin 600 mg, read-out: AUC0-∞): 1130 ng·h/mL
- AUC(0-inf) ([10]; both sexes, human, plasma, oral, Treatment B2: atogepant 60 mg + multiple-dose rifampin 600 mg, read-out: AUC0-∞ Geometric LSM, Test): 1090 ng·h/mL
- Cmax ([10]; both sexes, human, plasma, oral, Treatment B2: atogepant 60 mg + multiple-dose rifampin 600 mg, read-out: Cmax): 487 ng/mL
- Cmax ([10]; both sexes, human, plasma, oral, Treatment B2: atogepant 60 mg + multiple-dose rifampin 600 mg, read-out: Cmax Geometric LSM, Test): 454 ng/mL
- Tmax [10, 23]: 1.5 h
- Vd/F [10, 23]: 197 L
- reduction in mean apparent half-life ([10]; both sexes, human, plasma, oral, atogepant + multiple dose rifampin vs atogepant alone, read-out: reduction of mean apparent T1/2 (converted)): ~9 h
- Vd/F ([10]; both sexes, human, plasma, oral, Treatment A: atogepant 60 mg alone): 390 L
- inhibition of MATE 1 [11]: weak inhibitor
- inhibition of NTCP [12]: not an inhibitor

Source: patent US12350259B2, “Methods of treating migraine” (Allergan Pharmaceuticals International Limited, priority 2021, dated 2025)
